Target: T1, rhSphK1 (recombinant human sphingosine kinase 1) (Homo sapiens, UniProt Q9NYA1)
T1 construct: gene SPHK1; commercial recombinant human enzyme from two manufacturers
Assay: S1P formation by LC-MS/MS
Format: biochemical
Details: […] sphingosine, […] ATP, […] MgCl2, […] °C, […] h; range over two enzyme sources

T1 sequence (Q9NYA1 whole entry): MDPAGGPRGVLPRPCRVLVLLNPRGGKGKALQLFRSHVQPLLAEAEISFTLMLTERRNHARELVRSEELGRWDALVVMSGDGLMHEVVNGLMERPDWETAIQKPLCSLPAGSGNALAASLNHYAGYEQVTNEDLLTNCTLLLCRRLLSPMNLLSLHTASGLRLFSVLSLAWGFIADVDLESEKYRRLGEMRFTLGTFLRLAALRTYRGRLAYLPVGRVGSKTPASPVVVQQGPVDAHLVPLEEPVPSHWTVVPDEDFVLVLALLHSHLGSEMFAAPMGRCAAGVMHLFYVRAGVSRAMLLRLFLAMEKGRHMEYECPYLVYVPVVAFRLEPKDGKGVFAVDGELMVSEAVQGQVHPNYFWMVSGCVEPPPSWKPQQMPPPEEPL

## O=C(NCc1ccncc1)C12CC3CC(C1)CC(c1ccc(Cl)cc1)(C3)C2 [ABC294640]
  % reduction of S1P formation at 50 μM: 32-34%
